In test [1] the test system is Mus musculus. The experiment in a line: Inhibition of methacholine-induced bronchoconstriction in Balb/c mouse at 5 ug administered intranasally after 48 hrs. The format is functional.
For test [2], the system named is Mus musculus. The experiment in a line: Inhibition of methacholine-induced bronchoconstriction in Balb/c mouse at 5 ug administered intranasally after 24 hrs. The format is functional.
The subject of test [3] is Mus musculus. The experiment in a line: Inhibition of methacholine-induced bronchoconstriction in Balb/c mouse at 5 ug administered intranasally after 5 hrs. The format is functional.
In test [4] the target is T1, Muscarinic acetylcholine receptor M1 (Homo sapiens, UniProt P11229).
T1 sequence (P11229 whole entry): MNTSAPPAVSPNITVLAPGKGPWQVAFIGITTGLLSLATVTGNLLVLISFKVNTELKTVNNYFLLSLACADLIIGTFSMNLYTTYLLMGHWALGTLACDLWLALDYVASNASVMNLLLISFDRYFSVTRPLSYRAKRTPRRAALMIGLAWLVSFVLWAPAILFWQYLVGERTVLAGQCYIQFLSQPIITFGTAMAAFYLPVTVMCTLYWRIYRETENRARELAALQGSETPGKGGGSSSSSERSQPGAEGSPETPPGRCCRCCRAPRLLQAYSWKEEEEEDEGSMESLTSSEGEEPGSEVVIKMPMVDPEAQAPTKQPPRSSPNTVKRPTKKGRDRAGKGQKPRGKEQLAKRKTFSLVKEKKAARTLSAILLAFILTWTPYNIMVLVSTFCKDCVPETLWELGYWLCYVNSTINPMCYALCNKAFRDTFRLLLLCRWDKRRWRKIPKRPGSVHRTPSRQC
Briefly: Antagonist activity at human muscarinic M1 receptor expressed in CHO cells assessed as inhibition of acetylcholine-induced calcium mobilization by FLIPR assay. The format is functional, cell-based. For orientation: Calcium assays in cells follow changes in intracellular calcium, usually with a dye or a luminescent sensor.

Test [5] concerns the target T2, Muscarinic acetylcholine receptor M2 (Homo sapiens, UniProt P08172).
T2 sequence (P08172 whole entry): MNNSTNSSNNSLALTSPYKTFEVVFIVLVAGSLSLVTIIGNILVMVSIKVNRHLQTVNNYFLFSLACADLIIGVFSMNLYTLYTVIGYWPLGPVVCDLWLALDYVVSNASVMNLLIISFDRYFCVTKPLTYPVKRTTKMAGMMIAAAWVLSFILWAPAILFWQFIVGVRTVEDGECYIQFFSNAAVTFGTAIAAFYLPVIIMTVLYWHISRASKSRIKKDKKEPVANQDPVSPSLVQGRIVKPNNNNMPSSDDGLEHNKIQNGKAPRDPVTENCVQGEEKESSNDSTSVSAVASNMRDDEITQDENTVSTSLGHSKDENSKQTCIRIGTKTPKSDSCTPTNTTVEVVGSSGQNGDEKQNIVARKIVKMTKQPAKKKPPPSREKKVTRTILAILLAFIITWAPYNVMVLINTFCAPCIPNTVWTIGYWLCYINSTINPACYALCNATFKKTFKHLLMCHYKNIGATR
Briefly: Antagonist activity at human muscarinic M2 receptor expressed in CHO cells assessed as inhibition of acetylcholine-induced calcium mobilization by FLIPR assay. The format is functional, cell-based.

Test [6] has as its target Muscarinic acetylcholine receptor M3 (Homo sapiens, UniProt P20309). The experiment in a line: Antagonist activity at human muscarinic M3 receptor expressed in CHO cells assessed as inhibition of acetylcholine-induced calcium mobilization by FLIPR assay. The format is functional, cell-based.

The term IC50 denotes the midpoint of a concentration-inhibition curve.

Muscarinic acetylcholine receptor M3, sequence (P20309 whole entry): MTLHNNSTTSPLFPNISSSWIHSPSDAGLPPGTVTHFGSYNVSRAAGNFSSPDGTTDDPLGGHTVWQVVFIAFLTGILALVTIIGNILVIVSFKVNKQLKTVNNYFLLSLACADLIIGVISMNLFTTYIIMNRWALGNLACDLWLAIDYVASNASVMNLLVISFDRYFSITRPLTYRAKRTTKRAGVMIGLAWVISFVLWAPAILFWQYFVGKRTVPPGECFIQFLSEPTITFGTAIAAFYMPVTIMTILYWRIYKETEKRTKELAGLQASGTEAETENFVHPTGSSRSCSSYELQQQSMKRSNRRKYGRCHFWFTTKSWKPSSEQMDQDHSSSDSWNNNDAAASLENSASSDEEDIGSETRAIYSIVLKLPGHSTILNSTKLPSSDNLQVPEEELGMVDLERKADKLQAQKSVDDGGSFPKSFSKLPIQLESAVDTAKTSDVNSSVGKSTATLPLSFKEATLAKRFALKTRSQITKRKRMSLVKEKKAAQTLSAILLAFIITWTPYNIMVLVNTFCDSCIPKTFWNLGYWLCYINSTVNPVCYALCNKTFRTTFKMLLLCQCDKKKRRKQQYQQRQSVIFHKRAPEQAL

As for `CC(C)OC(=O)c1ccc(NC(=O)N[C@@H](Cc2ccc(O)cc2)C(=O)N[C@H]2CCC[N+](C)(Cc3ccc(Cl)cc3)C2)cc1` (some centres undefined), the results for the “inhibition (INH)” value with Mus musculus [1], in the test with Mus musculus [2] and in the test with Mus musculus [3] were 0%, 38% and 94%, respectively.

Turning to `Cc1c[n+]2cc(CNC(=O)[C@H](Cc3ccc(O)cc3)NC(=O)Nc3ccc(C(=O)OC(C)C)cc3)n(Cc3ccc(C(F)(F)F)cc3)c2s1.O=C([O-])C(F)(F)F`, the results for the “inhibition (INH)” value with Mus musculus [2] and in the test on Mus musculus [3] were 12% and 89%, respectively.

As to `CC(C)OC(=O)c1ccc(NC(=O)N[C@@H](Cc2ccc(O)cc2)C(=O)NCCC[N+](C)(C)Cc2ccc(Cl)cc2)cc1`, the IC50 in test [4] was 757 nM; in test [5] it was 178 nM; in test [6], 197 nM.

As for `CC(C)OC(=O)c1ccc(NC(=O)N[C@@H](Cc2ccc(O)cc2)C(=O)NCC(C)(C)C[N+](C)(C)Cc2ccc(Cl)cc2)cc1`, the results for the 50% inhibitory concentration (IC50) in test [4], in test [5] and in test [6] were 476 nM, 87.6 nM and under 5 nM, respectively.

For `CC(C)OC(=O)c1ccc(NC(=O)N[C@@H](Cc2ccc(O)cc2)C(=O)N2CC[N+](C)(Cc3ccc4c(c3)OCO4)CC2)cc1`, the IC50 in test [4] is over 3300 nM; in test [5] it was 427 nM; in test [6], 10.2 nM.

As to `CC(C)OC(=O)c1ccc(NC(=O)N[C@@H](Cc2ccc(O)cc2)C(=O)N2CC[N+](C)(CC3CCCCC3)CC2)cc1`, the IC50 in test [4] worked out at 2500 nM; in test [5] it was 191 nM; in test [6], 50.2 nM.

As for `CC(C)OC(=O)c1ccc(NC(=O)N[C@@H](Cc2ccc(O)cc2)C(=O)N2CC[N+](Cc3ccc(Cl)cc3)(C(C)C)CC2)cc1`, the IC50 in test [4] worked out at 893 nM; in test [5], 97.9 nM; in test [6], 27.5 nM.

On to `CC(C)OC(=O)c1ccc(NC(=O)N[C@@H](Cc2ccc(O)cc2)C(=O)N2CC[N+](Cc3ccc(Cl)cc3)(CC3CCCCC3)CC2)cc1`, for which the IC50 in test [4] is 141 nM; in test [5], 58.8 nM; in test [6] it was under 5 nM.

As for `CC(C)OC(=O)c1ccc(NC(=O)N[C@@H](Cc2ccc(O)cc2)C(=O)N2CC[N+](Cc3ccc(Cl)cc3)(CC3CCc4ccccc4C3)CC2)cc1` (some centres undefined), the results for the IC50 in test [4], in test [5] and in test [6] were 462 nM, 41.2 nM and under 5 nM, respectively.

On to `CC(C)OC(=O)c1ccc(NC(=O)N[C@@H](Cc2ccc(O)cc2)C(=O)N2CC[N+](C)(CCc3ccccc3)CC2)cc1`, for which the IC50 in test [4] is 1350 nM; in test [5], 860 nM; in test [6], under 5 nM.

As for `CC(C)OC(=O)c1ccc(NC(=O)N[C@@H](Cc2ccc(O)cc2)C(=O)N(C)Cc2n(C)cc[n+]2C)cc1`, the 50% inhibitory concentration (IC50) in test [4], in test [5] and in test [6] was over 3300 nM each time.

Take `CC(C)OC(=O)c1ccc(NC(=O)N[C@@H](Cc2ccc(O)cc2)C(=O)N(C)Cc2n(C)cc[n+]2Cc2ccc(Cl)cc2)cc1`: the IC50 in test [4] was over 3300 nM; in test [5] it was 999 nM; in test [6], 392 nM.

With `CC(C)OC(=O)c1ccc(NC(=O)N[C@@H](Cc2ccc(O)cc2)C(=O)NCc2n(Cc3ccc(Cl)cc3)cc[n+]2Cc2ccc(Cl)cc2)cc1`, the values for the IC50 in test [4], in test [5] and in test [6] were 327 nM, 181 nM and 51.9 nM, respectively.

Consider `Cc1csc2n(C)c(CNC(=O)[C@H](Cc3ccc(O)cc3)NC(=O)Nc3ccc(C(=O)OC(C)C)cc3)c[n+]12`, for which the IC50 in test [4], in test [5] and in test [6] was under 5 nM in each case.

`Cc1csc2n(Cc3ccc(Cl)cc3)c(CNC(=O)[C@H](Cc3ccc(O)cc3)NC(=O)Nc3ccc(C(=O)OC(C)C)cc3)c[n+]12`: the IC50 in test [4], in test [5] and in test [6] was under 5 nM each time.

For `Cc1c[n+]2cc(CNC(=O)[C@H](Cc3ccc(O)cc3)NC(=O)Nc3ccc(C(=O)OC(C)C)cc3)n(C)c2s1`, the IC50 in test [4], in test [5] and in test [6] was under 5 nM throughout.

With `CC(C)OC(=O)c1ccc(NC(=O)N[C@@H](Cc2ccc(O)cc2)C(=O)N2CCC[C@H]([N+](C)(C)Cc3ccc(Cl)cc3)C2)cc1`, the results for the IC50 in test [4], in test [5] and in test [6] were 1120 nM, 105 nM and 45.3 nM, respectively.

Take `CC(C)OC(=O)c1ccc(NC(=O)N[C@@H](Cc2ccc(O)cc2)C(=O)N2CCC([N+]3(Cc4ccc(Cl)cc4)CCCC3)CC2)cc1`: the results for the half-maximal inhibitory concentration (IC50) in test [4], in test [5] and in test [6] were 882 nM, 94.6 nM and 68.9 nM, respectively.

Turning to `CC[N+]1(C2CCN(C(=O)[C@H](Cc3ccc(O)cc3)NC(=O)Nc3ccc(C(=O)OC(C)C)cc3)CC2)CCCC1`, the IC50 in test [4] was over 3300 nM; in test [5] it was 556 nM; in test [6], 579 nM.

Consider `CC(C)OC(=O)c1ccc(NC(=O)N[C@@H](Cc2ccc(O)cc2)C(=O)NCC[N+](C)(Cc2ccc(Cl)cc2)Cc2ccc(Cl)cc2)cc1`, for which the concentration for half-maximal inhibition (IC50) in test [4] came out at 379 nM; in test [5] it was 405 nM; in test [6], 70.4 nM.

Turning to `CC(C)OC(=O)c1ccc(NC(=O)N[C@@H](Cc2ccc(O)cc2)C(=O)NCC[N+](C)(C)Cc2ccc(Cl)cc2)cc1`, the IC50 in test [4] turned out to be 1430 nM; in test [5], 549 nM; in test [6], 143 nM.

Consider `CC[N+](CC)(CCNC(=O)[C@H](Cc1ccc(O)cc1)NC(=O)Nc1ccc(C(=O)OC(C)C)cc1)Cc1ccc(Cl)cc1`, for which the IC50 was determined as 584 nM in test [4], 311 nM in test [5] and 223 nM in test [6].

For `CC(C)OC(=O)c1ccc(NC(=O)N[C@@H](Cc2ccc(O)cc2)C(=O)NCC[N+](C)(Cc2ccc3ccccc3c2)Cc2ccc3ccccc3c2)cc1`, the IC50 in test [4] is 948 nM; in test [5], 15 nM; in test [6], 82.2 nM.

Regarding `CC(C)OC(=O)c1ccc(NC(=O)N[C@@H](Cc2ccc(O)cc2)C(=O)NCC[N+](C)(C)C23CC4CC(CC(C4)C2)C3)cc1`, the results for the IC50 in test [4], in test [5] and in test [6] were 13.1 nM, 13.1 nM and 6.1 nM, respectively.

With `CC(C)OC(=O)c1ccc(NC(=O)N[C@@H](Cc2ccc(O)cc2)C(=O)NCC[N+]2(Cc3ccc(Cl)cc3)CCCC2)cc1`, the IC50 in test [4] was 418 nM; in test [5], 108 nM; in test [6], 44.9 nM.

Consider `CC(C)OC(=O)c1ccc(NC(=O)N[C@@H](Cc2ccc(O)cc2)C(=O)NCC[N+]2(Cc3ccc(Cl)cc3)CCCCC2)cc1`, for which the IC50 in test [4] turned out to be 199 nM; in test [5], 82.5 nM; in test [6] it was 33.4 nM.

With `CC(C)OC(=O)c1ccc(NC(=O)N[C@@H](Cc2ccc(O)cc2)C(=O)NCC[N+]2(C)CCCCCC2)cc1`, the IC50 in test [4] was over 3300 nM; in test [5] it was 328 nM; in test [6], 159 nM.

Regarding `CC(C)OC(=O)c1ccc(NC(=O)N[C@@H](Cc2ccc(O)cc2)C(=O)NCC[N+](C)(C(C)C)C(C)C)cc1`, the values for the IC50 in test [4], in test [5] and in test [6] were over 3300 nM, 337 nM and 237 nM, respectively.

Take `CC(C)OC(=O)c1ccc(NC(=O)N[C@@H](Cc2ccc(O)cc2)C(=O)N(CC[N+](C)(C)C)Cc2ccccc2)cc1`: the IC50 in test [4], in test [5] and in test [6] was over 3300 nM each time.

As to `CC(C)OC(=O)c1ccc(NC(=O)N[C@@H](Cc2ccc(O)cc2)C(=O)NCCC[N+](C)(C)Cc2ccc3ccccc3c2)cc1`, the values for the IC50 in test [4], in test [5] and in test [6] were 734 nM, 411 nM and 417 nM, respectively.

As for `CC(C)OC(=O)c1ccc(NC(=O)N[C@@H](Cc2ccc(O)cc2)C(=O)N2CCC[C@@H]([N+](C)(C)Cc3ccc(Cl)cc3)C2)cc1`, the 50% inhibitory concentration (IC50) in test [4] came to 1900 nM; in test [5], 832 nM; in test [6], 13.3 nM.

Take `Cc1cn2cc(CNC(=O)[C@H](Cc3ccc(O)cc3)NC(=O)Nc3ccc(C(=O)OC(C)C)cc3)[n+](Cc3ccc4ccccc4c3)c2s1.O=C([O-])C(F)(F)F`: the “inhibition (INH)” value came to 69% in the test with Mus musculus [1] and 78% in the test on Mus musculus [3].

Source of the values: ChEMBL document CHEMBL2203018, “Tyrosine urea muscarinic acetylcholine receptor antagonists: achiral quaternary ammonium groups” (Bioorg Med Chem Lett, 2012).
